According to patent US8785494B2, “Calcium sensing receptor modulating compounds and pharmaceutical use thereof” (LEO-Pharma A/S, priority 2009, dated 2014):

Columns and labels:
[1] = Clearance in rat hepatocytes; format: in vitro ADME; conditions: test compound 0.5 μM, 1×10^6 cells/mL, scaled to rat body weight
Description: Test compound concentration is 0.5 μM and cell concentration is 1×10^6 cells/mL in the incubation. The described method is manual and is based on a 24-well format.
The liver is collected from a male Spraque-Dawley rat. One liver lobe is cut off and flushed with various buffers to loosen the cells. The cell suspension is washed and centrifuged, and the cell density is adjusted to 1.2×10^6 cells/mL with Krebs-Henseleit buffer, pH 7.4, containing 0.2% bovine serum albumin (BSA). Only cell suspensions with viability above 80% are used.
A volume of 315 μL cell suspension per well is added to 24-well plates and preincubated at 37° C. for 20 min. Test compound (0.5 μM) is added, and the mixture is incubated for 20 minutes. Incubations are run in duplicate. Samples are withdrawn at predetermined stop times and mixed with methanol containing internal standard (IS) to terminate all enzyme activity and precipitate proteins.
The percentage of organic solvent in the incubations is less than 1%. Careful inspections of reagents are performed prior to the start of any experiment to ensure all reagents are in solution.
The 24-well plates are centrifuged. Test compound depletion, using a compound specific LC/MS/MS method, is determined. The logarithm of the peak area ratios of test compound to internal standard (IS) versus incubation time is plotted in a graph
The rate constant (k) (min^−1) of test compound depletion is calculated from the linear part of the curve and the half-time (t1/2) in minutes can be calculated from the rate constant (Eq. 1). t1/2=(ln 2)/k (Eq. 1)
Intrinsic clearance (Clint) (mL/min/10^6 cells) is calculated from: Clint=k/c (Eq. 2) where c is the cell concentration in 10^6 cells/mL.
Conversion to apparent clearance (Clapp) (mL/min/kg) is done by Eq. 3: Clapp=Clint×a×b/d (Eq. 3) where a, b and d are the scaling factors for normalizing Clint to rat body weight.
The following rat scaling factors are used: • a: 120 (cells/liver weight (10^6 cells/g)) • b: 10 (liver weight (g)) • d: 0.25 (body weight (kg))
Apparent clearance is a measure of compound elimination from the liver. Apparent clearance below approximately 25 mL/min/kg rat body weight (corresponding to extraction ratio of approx. 30%) is considered as low clearance (high metabolic stability). Apparent clearance above approximately 165 mL/min/kg rat body weight (corresponding to extraction ratio of approx. 75%) is considered as high clearance (low metabolic stability).

human CaSR = biological target: T1, human CaSR (Homo sapiens, UniProt P41180); assay: Functional whole cell assay (IP1 accumulation, IP-One htrf) in CHO-K1 cells stably expressing human CaSR; format: cell-based; conditions: 2 mM Ca2+, 1 hour at 37° C., IP1 readout, read-out: Functional whole cell assay (modulation of human CaSR)
T1 construct: The ORF coding for the human CaSR (genebank: NM_000388) was acquired from Invitrogen Corp, USA
T1 sequence (P41180 20-1078): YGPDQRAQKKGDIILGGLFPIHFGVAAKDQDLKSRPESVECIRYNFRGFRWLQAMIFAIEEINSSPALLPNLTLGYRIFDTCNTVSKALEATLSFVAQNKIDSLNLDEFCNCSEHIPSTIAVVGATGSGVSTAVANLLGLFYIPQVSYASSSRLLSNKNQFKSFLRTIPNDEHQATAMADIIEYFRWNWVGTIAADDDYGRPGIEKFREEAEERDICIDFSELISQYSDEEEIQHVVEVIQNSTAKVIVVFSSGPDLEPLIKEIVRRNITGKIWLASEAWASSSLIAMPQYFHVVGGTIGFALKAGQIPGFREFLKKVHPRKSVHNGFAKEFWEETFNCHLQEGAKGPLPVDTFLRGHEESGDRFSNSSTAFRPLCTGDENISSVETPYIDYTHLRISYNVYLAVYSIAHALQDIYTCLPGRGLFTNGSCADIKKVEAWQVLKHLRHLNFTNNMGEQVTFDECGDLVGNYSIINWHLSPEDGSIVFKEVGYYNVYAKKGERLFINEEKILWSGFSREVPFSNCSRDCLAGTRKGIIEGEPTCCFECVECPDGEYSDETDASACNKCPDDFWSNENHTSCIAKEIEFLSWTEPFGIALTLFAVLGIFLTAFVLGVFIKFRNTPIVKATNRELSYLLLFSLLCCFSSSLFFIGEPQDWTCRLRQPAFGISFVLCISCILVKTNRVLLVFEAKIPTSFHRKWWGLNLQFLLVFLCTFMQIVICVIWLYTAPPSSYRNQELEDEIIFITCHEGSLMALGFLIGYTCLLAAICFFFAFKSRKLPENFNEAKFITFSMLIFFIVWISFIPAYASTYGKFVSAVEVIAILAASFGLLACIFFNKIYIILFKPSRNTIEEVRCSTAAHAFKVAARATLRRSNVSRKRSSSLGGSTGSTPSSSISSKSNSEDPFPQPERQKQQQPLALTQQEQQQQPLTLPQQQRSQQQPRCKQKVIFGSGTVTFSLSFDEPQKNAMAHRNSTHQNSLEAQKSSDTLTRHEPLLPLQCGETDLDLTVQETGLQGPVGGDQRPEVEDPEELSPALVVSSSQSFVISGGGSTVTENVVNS
Source text: The assay investigates a compound's functional ability to act as a biological positive modulator on the human CaSR. Activation of the receptor expressed on CHO-K1 cells is detected through the G alpha q pathway, the activation of phospholipase C and the accumulation of intracellular inositol phosphate (IP) as described earlier [Sandrine Ferry, Bruno Chatel, Robert H. Dodd, Christine Lair, Danielle Gully, Jean-Pierre Maffrand, and Martial Ruat. Effects of Divalent Cations and of a Calcimimetic on Adrenocorticotropic Hormone Release in Pituitary Tumor Cells. BIOCHEMICAL AND BIOPHYSICAL RESEARCH COMMUNICATIONS 238, 866-873 (1997)]. The human CaSR is stably expressed on a CHO-K1 cell clone, stimulated with a basal level of calcium and challenged with the tested compound. The level of IP1 is determined using the IP-One htrf kit (Cisbio, France). CHO-K1 cells not transfected with the CaSR fail to elicit an IP1 response upon calcium and/or compound stimulation.
The ORF coding for the human CaSR (genebank: NM_000388) was acquired from Invitrogen Corp, USA and subsequently cloned into the mammalian expression vector pCDA3.1.
CHO-K1 cells were transfected using Lipofectamine according to manufacturer's protocol (400.000 cells/well were seeded in a 6-well plate and transfected after 24 hours using 2 μg DNA and 5 μl lipofectamine). After another 24 hours the cells were detached, seeded and subjected to 1 mg/ml of G-418. Following 7 days growth single clones were picked, the CaSR expression evaluated using the 5C10 antibody against CaSR, the clones with the highest expression were selected and tested for functional response. The preferred clone was continuously cultured according to standard procedures described in ATCC (American Type Culture Collection) protocols for CHO-K1 with the addition of 500 μg/ml G-418.
On the assay day cells were harvested and resuspended to 13*10^6 cells/ml in stimulation buffer (containing: Hepes 10 mM, MgCl2 0.5 mM, KCl 4.2 mM, NaCl 146 mM, glucose 5.5 mM, LiCl 50 mM at pH 7.4). Five μl cell solution were pipetted into a well (white 384-well plate, Perkin Elmer Optiplate) followed by 5 μl compound diluted in a Ca^2+-containing (to the final concentration of 2 mM) buffer. After compound stimulation for 1 hour at 37° C. 10 μl of IP-One assay reagents were added and incubated for another 1 hour at room temperature. Finally the plate was read using a Perkin Elmer EnVision, according to protocol supplied by the IP-One assay kit manufacturer. The FRET ratio was calculated by dividing the 665 nm emission signal with that of the 615 nm.

SMILES | EC50 (human CaSR) | Clearance (Clapp) in rat hepatocytes [1]
C[C@@H](NC1CCC(c2ccc(CCC(=O)O)c(C(F)(F)F)c2)C1)c1cccc2ccccc12 (single isomer, unassigned) [Compound 1007] | < 500 nM | B (B: 30-55 mL/min/kg)
COc1cc([C@@H](C)NC2CC[C@H](c3ccc(CCC(=O)O)c(C(F)(F)F)c3)C2)ccc1F (single isomer, unassigned) [Compound 1012] | < 500 nM | A (A: <30 mL/min/kg)

Second part, led by results:

EC50 (human CaSR) | SMILES | Clearance (Clapp) in rat hepatocytes [1]
< 500 nM | C[C@@H](NC1CC[C@@H](c2cc(OCC(=O)O)cc(C(F)(F)F)c2)C1)c1cccc2ccccc12 (single isomer, unassigned) [Compound 1023] | B (B: 30-55 mL/min/kg)
< 500 nM | COc1cc([C@@H](C)NC2CC[C@H](c3ccc(OCC(=O)O)c(C(F)(F)F)c3)C2)ccc1F (mixture of isomers) [Compound 1021, 2-[4-[(1S)-3-[[(1R)-1-(4-fluoro-3-methoxy-phenyl)ethyl]amino]cyclopentyl]-2-(trifluoromethyl)phenoxy]acetic acid] | A (A: <30 mL/min/kg)
< 500 nM | COc1cc([C@@H](C)NC2CC[C@@H](c3cc(OCC(=O)O)cc(C(F)(F)F)c3)C2)ccc1F (single isomer, unassigned) [Compound 1022] | A (A: <30 mL/min/kg)
